Remaining activity data for five compounds are collected here from patent US12227500B2, “Substituted pyrrolo[2,3-b]pyridines for suppressing toxic endoplasmic reticulum stress” (THE TRUSTEES OF COLUMBIA UNIVERSITY IN THE CITY OF NEW YORK, priority 2018, dated 2025).

Holding throughout (assay): Radiolabeled ATP kinase assay, panel of 60 kinases (Table S5)
Holding throughout (format): biochemical

The target of assay [1] is T1, panel of 60 human kinases (Homo sapiens, UniProt O95819).
T1 construct: purchased Reaction Biology Corp
The following applies: HGK/MAP4K4; 0.1 μM; 10 μM ATP; read-out: % Enzyme Activity (relative to DSMO controls). The method, boiled down: (§1)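 Compounds at two concentrations, 0.1 μM and 0.5 μM, were screened for inhibition of 60 kinases in cell-free assays read out by radiolabeled ATP.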

The target in assay [2] is T2, panel of 60 human kinases (Homo sapiens, UniProt P08581).
T2 construct: purchased Reaction Biology Corp
The following applies: c-MET; 0.1 μM; 10 μM ATP; read-out: % Enzyme Activity (relative to DSMO controls). The method, boiled down:
as §1

The target of assay [3] is T3, panel of 60 human kinases (Homo sapiens, UniProt P11362).
T3 construct: purchased Reaction Biology Corp
T3 sequence (P11362 22-822): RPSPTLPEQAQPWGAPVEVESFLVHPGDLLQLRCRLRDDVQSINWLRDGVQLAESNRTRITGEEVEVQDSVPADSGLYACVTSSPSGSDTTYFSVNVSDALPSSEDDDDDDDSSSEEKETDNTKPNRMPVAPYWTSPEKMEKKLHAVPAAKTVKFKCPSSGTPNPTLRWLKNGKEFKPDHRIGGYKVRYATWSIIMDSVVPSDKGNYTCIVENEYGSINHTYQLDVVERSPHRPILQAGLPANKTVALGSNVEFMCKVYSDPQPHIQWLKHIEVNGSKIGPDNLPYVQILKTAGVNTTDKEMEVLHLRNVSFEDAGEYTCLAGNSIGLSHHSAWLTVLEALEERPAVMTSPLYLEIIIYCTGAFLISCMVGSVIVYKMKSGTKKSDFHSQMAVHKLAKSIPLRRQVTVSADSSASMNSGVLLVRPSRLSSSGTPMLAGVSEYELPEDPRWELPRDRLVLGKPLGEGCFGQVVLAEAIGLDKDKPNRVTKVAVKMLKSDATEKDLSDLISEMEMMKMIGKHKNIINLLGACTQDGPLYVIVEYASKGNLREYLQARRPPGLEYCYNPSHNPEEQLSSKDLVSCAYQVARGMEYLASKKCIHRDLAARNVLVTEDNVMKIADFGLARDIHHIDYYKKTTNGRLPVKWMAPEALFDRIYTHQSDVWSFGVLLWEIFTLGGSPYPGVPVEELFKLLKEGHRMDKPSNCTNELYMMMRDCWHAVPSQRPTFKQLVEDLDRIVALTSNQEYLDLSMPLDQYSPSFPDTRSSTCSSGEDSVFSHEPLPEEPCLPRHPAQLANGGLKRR
Particulars: FGFR1; 0.1 μM; 10 μM ATP; read-out: % Enzyme Activity (relative to DSMO controls). The method, boiled down:
as §1

The target of assay [4] is T4, panel of 60 human kinases (Homo sapiens, UniProt P21802).
T4 construct: purchased Reaction Biology Corp
T4 sequence (P21802 22-821): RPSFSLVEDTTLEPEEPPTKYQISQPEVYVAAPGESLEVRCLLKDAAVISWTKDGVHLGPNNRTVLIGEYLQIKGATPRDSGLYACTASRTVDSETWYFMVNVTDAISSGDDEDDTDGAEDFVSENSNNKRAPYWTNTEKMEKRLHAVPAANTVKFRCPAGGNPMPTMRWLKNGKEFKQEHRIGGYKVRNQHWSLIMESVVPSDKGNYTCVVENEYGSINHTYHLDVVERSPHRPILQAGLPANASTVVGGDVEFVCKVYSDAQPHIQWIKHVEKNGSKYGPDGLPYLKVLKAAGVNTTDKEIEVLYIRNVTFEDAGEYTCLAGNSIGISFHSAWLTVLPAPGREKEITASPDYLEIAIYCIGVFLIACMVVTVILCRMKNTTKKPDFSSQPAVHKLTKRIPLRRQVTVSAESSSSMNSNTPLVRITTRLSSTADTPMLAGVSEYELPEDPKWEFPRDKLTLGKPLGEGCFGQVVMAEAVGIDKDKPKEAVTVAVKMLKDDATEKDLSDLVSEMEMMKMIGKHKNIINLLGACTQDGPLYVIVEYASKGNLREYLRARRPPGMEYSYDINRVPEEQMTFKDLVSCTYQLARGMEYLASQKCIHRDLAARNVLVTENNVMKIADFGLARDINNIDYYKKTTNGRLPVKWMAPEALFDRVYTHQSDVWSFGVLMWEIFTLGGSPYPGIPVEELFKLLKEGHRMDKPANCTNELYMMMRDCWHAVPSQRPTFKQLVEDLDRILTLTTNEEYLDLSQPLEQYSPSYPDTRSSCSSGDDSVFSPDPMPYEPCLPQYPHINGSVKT
Particulars: FGFR2; 0.1 μM; 10 μM ATP; read-out: % Enzyme Activity (relative to DSMO controls). In a few lines:
as §1

The target of assay [5] is T5, panel of 60 human kinases (Homo sapiens, UniProt P24941).
T5 construct: purchased Reaction Biology Corp
The following applies: 0.1 μM, 10 μM ATP, read-out: % Enzyme Activity (relative to DSMO controls). In a few lines: as §1

Assay [6] addresses T6, panel of 60 human kinases (Homo sapiens, UniProt P42684).
T6 construct: purchased Reaction Biology Corp
The following applies: ABL2/ARG; 0.1 μM; 10 μM ATP; read-out: % Enzyme Activity (relative to DSMO controls). The method, boiled down:
as §1

Assay [7] addresses T7, panel of 60 human kinases (Homo sapiens, UniProt P45983).
T7 construct: purchased Reaction Biology Corp
The following applies: JNK1; 0.1 μM; 10 μM ATP; read-out: % Enzyme Activity (relative to DSMO controls). In a few lines: as §1

Assay [8] concerns the target T8, panel of 60 human kinases (Homo sapiens, UniProt P49760).
T8 construct: purchased Reaction Biology Corp
Particulars: CLK2; 0.1 μM; 10 μM ATP; read-out: % Enzyme Activity (relative to DSMO controls). In a few lines:
as §1

In assay [9] the target is T9, panel of 60 human kinases (Homo sapiens, UniProt Q00526).
T9 construct: purchased Reaction Biology Corp
T9 sequence (Q00526 whole entry): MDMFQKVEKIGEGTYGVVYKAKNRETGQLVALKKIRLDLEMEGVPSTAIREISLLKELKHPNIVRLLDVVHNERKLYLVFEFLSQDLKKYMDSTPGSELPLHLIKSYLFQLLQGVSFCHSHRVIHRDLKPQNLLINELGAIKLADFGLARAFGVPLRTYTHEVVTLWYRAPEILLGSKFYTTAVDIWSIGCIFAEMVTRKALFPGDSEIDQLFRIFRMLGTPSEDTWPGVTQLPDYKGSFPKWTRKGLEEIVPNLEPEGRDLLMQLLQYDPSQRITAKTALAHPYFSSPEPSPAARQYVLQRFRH
Particulars: CDK3/cyclin E; 0.1 μM; 10 μM ATP; read-out: % Enzyme Activity (relative to DSMO controls). In a few lines: as §1

In assay [10] the target is T10, panel of 60 human kinases (Homo sapiens, UniProt Q00535).
T10 construct: purchased Reaction Biology Corp
T10 sequence (Q00535 whole entry): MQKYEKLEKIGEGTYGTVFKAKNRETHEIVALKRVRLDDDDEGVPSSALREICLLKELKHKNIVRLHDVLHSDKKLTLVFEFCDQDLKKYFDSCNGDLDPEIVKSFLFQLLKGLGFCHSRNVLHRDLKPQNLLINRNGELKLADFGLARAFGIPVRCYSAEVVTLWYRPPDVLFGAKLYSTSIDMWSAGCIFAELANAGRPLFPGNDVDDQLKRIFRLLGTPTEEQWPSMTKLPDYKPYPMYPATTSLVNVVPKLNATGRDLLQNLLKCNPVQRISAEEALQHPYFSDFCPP
The following applies: 0.1 μM, 10 μM ATP, read-out: % Enzyme Activity (relative to DSMO controls). The method, boiled down:
as §1

Assay [11] addresses T11, panel of 60 human kinases (Homo sapiens, UniProt Q07002).
T11 construct: purchased Reaction Biology Corp
The following applies: CDK18/cyclin Y (PCTK3); 0.1 μM; 10 μM ATP; read-out: % Enzyme Activity (relative to DSMO controls). The method, boiled down:
as §1

In assay [12] the target is T12, panel of 60 human kinases (Homo sapiens, UniProt Q15139).
T12 construct: purchased Reaction Biology Corp
T12 sequence (Q15139 1-912): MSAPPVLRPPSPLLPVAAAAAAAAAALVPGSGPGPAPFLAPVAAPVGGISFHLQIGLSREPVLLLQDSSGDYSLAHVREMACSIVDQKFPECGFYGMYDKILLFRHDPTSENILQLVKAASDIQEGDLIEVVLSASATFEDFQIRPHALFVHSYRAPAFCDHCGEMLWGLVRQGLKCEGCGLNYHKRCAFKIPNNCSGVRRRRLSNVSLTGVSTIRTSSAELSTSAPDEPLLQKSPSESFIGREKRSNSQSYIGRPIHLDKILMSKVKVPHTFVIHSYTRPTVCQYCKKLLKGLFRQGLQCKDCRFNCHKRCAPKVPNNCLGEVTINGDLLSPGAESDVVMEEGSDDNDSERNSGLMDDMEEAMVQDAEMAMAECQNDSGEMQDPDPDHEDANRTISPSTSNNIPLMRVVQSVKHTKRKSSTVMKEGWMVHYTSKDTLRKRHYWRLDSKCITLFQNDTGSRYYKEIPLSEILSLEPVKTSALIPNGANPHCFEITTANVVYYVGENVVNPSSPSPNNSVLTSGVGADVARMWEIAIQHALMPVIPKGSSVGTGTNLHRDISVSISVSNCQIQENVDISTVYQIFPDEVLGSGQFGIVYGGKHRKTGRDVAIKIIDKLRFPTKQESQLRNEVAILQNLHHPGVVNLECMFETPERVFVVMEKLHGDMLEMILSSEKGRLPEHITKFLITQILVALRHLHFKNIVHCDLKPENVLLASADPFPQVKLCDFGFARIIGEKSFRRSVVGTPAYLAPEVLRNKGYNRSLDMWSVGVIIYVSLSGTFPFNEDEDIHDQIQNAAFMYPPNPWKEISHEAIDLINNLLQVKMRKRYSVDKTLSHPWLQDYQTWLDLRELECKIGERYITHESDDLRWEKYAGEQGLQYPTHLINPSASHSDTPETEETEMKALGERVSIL
Particulars: PKCmu/PRKD1; 0.1 μM; 10 μM ATP; read-out: % Enzyme Activity (relative to DSMO controls). The method, boiled down: as §1

Assay [13] has as its target T13, panel of 60 human kinases (Homo sapiens, UniProt Q15759).
T13 construct: purchased Reaction Biology Corp
The following applies: P38b/MAPK11; 0.1 μM; 10 μM ATP; read-out: % Enzyme Activity (relative to DSMO controls). The method, boiled down: as §1

The target of assay [14] is T14, panel of 60 human kinases (Homo sapiens, UniProt Q16288).
T14 construct: purchased Reaction Biology Corp
T14 sequence (Q16288 32-839): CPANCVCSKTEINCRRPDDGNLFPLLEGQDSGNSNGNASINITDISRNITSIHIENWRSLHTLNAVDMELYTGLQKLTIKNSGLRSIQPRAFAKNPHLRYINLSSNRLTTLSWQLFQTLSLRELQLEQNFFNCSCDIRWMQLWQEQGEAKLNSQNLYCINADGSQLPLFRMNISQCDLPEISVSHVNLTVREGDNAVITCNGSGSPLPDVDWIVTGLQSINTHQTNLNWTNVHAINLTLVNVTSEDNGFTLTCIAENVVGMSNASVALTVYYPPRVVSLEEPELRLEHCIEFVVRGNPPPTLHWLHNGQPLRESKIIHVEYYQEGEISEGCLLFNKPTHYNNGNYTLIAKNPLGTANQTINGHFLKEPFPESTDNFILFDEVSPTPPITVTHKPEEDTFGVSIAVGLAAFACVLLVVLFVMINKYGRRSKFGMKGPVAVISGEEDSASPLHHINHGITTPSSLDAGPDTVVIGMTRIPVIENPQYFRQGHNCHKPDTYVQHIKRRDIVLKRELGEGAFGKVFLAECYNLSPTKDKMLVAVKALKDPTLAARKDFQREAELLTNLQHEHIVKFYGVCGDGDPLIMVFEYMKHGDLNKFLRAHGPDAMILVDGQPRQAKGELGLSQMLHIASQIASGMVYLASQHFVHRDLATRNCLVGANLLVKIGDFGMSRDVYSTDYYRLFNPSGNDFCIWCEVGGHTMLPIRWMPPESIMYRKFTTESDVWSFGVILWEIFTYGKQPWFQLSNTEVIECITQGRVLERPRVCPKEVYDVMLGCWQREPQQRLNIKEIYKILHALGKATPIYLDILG
Particulars: TRKC; 0.1 μM; 10 μM ATP; read-out: % Enzyme Activity (relative to DSMO controls). The method, boiled down:
as §1

Assay [15] concerns the target T15, panel of 60 human kinases (Homo sapiens, UniProt Q96GD4).
T15 construct: purchased Reaction Biology Corp
Particulars: Aurora B; 0.1 μM; 10 μM ATP; read-out: % Enzyme Activity (relative to DSMO controls). In a few lines: as §1

Like-named read-outs stand apart in the source and are kept apart here.

T15 sequence (Q96GD4 whole entry): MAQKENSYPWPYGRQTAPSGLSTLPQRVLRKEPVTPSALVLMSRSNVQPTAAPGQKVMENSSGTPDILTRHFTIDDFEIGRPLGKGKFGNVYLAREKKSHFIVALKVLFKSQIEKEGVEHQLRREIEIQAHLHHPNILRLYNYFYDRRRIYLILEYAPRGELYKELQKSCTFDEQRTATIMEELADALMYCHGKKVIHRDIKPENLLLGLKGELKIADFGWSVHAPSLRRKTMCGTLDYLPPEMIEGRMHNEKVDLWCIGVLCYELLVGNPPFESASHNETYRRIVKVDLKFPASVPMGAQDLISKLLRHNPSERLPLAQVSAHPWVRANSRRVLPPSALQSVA
T11 sequence (Q07002 whole entry): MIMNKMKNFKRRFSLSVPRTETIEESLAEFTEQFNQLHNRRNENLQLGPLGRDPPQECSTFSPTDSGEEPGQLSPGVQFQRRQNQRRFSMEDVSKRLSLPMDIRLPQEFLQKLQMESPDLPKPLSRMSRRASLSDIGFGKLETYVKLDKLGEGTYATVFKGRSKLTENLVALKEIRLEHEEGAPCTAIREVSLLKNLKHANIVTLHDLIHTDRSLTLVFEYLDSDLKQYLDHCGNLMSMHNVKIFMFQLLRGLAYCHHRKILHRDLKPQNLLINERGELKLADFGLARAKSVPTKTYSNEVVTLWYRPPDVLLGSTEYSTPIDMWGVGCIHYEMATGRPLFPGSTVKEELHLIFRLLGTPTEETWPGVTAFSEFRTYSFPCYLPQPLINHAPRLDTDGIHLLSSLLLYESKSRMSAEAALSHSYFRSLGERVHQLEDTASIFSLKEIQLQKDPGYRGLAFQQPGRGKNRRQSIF
T7 sequence (P45983 whole entry): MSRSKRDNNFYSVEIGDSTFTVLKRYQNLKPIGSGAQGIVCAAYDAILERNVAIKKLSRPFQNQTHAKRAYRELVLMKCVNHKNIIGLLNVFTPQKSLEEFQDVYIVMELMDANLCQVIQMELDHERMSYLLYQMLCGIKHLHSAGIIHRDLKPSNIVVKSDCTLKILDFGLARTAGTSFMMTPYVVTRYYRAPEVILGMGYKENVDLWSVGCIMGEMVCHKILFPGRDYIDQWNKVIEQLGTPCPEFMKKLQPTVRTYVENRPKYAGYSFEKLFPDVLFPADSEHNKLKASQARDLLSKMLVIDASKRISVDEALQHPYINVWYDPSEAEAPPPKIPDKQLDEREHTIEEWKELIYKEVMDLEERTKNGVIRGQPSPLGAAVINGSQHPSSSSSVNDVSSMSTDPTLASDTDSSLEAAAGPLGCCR
T13 sequence (Q15759 whole entry): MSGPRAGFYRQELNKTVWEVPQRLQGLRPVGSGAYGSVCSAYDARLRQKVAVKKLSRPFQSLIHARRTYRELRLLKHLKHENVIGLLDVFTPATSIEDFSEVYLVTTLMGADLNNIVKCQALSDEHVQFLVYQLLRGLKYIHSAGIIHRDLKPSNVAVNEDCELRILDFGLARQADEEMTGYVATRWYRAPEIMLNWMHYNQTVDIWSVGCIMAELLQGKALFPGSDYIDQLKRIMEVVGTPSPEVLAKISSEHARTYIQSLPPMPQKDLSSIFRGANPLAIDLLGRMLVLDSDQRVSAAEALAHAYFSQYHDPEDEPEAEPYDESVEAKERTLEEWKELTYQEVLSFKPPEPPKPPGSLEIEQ

In the case of `CN1CCN(Cc2ccc(-c3cnc4[nH]cc(-c5cccc(Cl)c5)c4c3)cc2)CC1` [Compound 7ad, 3-(3-Chlorophenyl)-5-(4-((4-methylpiperazin-1-yl)methyl)phenyl)-1H-pyrrolo[2,3-b]pyridine], the remaining activity at 0.1 µM in [1] amounted to 1.36%; in [2], 86.2%; in assay [3], 98.2%; in assay [4], 77.6%; in assay [5] (CDK2/cyclin A1), 97%; in assay [5] (CDK2/cyclin A), 87.4%. The remaining activity at 0.1 µM was found to be 96.2% in assay [5] (CDK2/cyclin E); 75.1% in assay [5] (CDK2/cyclin O); 83.7% in [6]; 88.7% in [7]; 79.8% in [8]; 95.5% in assay [9]. The remaining activity at 0.1 µM in [10] (CDK5/p25) was determined as 84.4%; in [10] (CDK5/p35), 83.9%; in assay [11], 112%; in assay [12], 9.7%; in [13], 103%; in assay [14], 51.2%. For the same compound, the remaining activity at 0.1 µM in [15] came out at 91.8%.

As for `CN1CCN(Cc2ccc(-c3cnc4[nH]cc(-c5ccc6c(c5)OCCO6)c4c3)cc2)CC1` [Compound 7d, 3-(2,3-Dihydrobenzo[b][1,4]dioxin-6-yl)-5-(4-((4-methylpiperazin-1-yl)methyl)phenyl)-1H-pyrrolo[2,3-b]pyridine], the remaining activity at 0.1 µM in [1] came out at 2.05%; in assay [2], 110%; in [3] it was 93.2%; in assay [4] it was 70.4%; in assay [5] (CDK2/cyclin A1), 38.8%; in assay [5] (CDK2/cyclin A), 34.4%. Besides, the remaining activity at 0.1 µM in assay [5] (CDK2/cyclin E) is 89.1%; in assay [5] (CDK2/cyclin O) it was 39%; in [6], 72.7%; in assay [7], 52.2%; in assay [8] it was 2.71%; in [9], 76.7%. Also, the remaining activity at 0.1 µM in [10] (CDK5/p25) was found to be 16.4%; in assay [10] (CDK5/p35) it was 14.2%; in [11] it was 82.8%; in assay [12], 4.34%; in assay [13] it was 101%; in assay [14], 17.7%. In [15], the remaining activity at 0.1 µM is 83.5%.

With `Cc1nn(C)c(C)c1-c1c[nH]c2ncc(-c3ccc(CN4CCN(C)CC4)cc3)cc12` [Compound 7ai, 5-(4-((4-Methylpiperazin-1-yl)methyl)phenyl)-3-(1,3,5-trimethyl-1H-pyrazol-4-yl)-1H-pyrrolo[2,3-b]pyridine], the remaining activity at 0.1 µM in assay [1] was 9.15%; in assay [2], 77.4%; in assay [3], 97.5%; in assay [4], 80.9%; in assay [5] (CDK2/cyclin A1), 87.8%; in [5] (CDK2/cyclin A), 90.9%. Besides, the remaining activity at 0.1 µM in [5] (CDK2/cyclin E) was 94.8%; in assay [5] (CDK2/cyclin O) it was 77.9%; in assay [6], 44.4%; in assay [7], 77.7%; in assay [8] it was 52.5%; in assay [9], 96%. In addition, the remaining activity at 0.1 µM in [10] (CDK5/p25) amounted to 93.2%; in assay [10] (CDK5/p35) it was 87.9%; in assay [11], 100%; in assay [12], 14.2%; in assay [13], 104%; in assay [14], 13.1%. The remaining activity at 0.1 µM in [15] was found to be 99%.

Turning to `CN1CCN(Cc2ccc(-c3cnc4[nH]cc(-c5ccc6[nH]ccc6c5)c4c3)cc2)CC1` [Compound 1, 3-(1H-Indol-5-yl)-5-(4-((4-methylpiperazin-1-yl)methyl)phenyl)-1H-pyrrolo[2,3-b]pyridine, reference compound], the remaining activity at 0.1 µM in assay [1] amounted to 1.96%; in assay [2] it was 55.9%; in [3], 82.7%; in [4], 52.9%; in [5] (CDK2/cyclin A1) it was 83.6%; in [5] (CDK2/cyclin A), 83.7%. The remaining activity at 0.1 µM worked out at 97.9% in assay [5] (CDK2/cyclin E); 72.5% in [5] (CDK2/cyclin O); 54.9% in assay [6]; 75.3% in assay [7]; 22.8% in [8]; 89.1% in assay [9]. Besides, the remaining activity at 0.1 µM in assay [10] (CDK5/p25) came out at 52.8%; in assay [10] (CDK5/p35) it was 52.3%; in [11], 103%; in [12] it was 11.4%; in assay [13], 104%; in assay [14], 6.69%. In addition, in [15], the remaining activity at 0.1 µM was found to be 88.8%.

With `CN1CCN(Cc2ccc(-c3cnc4[nH]cc(-c5cnn(Cc6ccccc6)c5)c4c3)cc2)CC1` [Compound 7ah, 3-(1-Benzyl-1H-pyrazol-4-yl)-5-(4-((4-methylpiperazin-1-yl)methyl)phenyl)-1H-pyrrolo[2,3-b]pyridine], the remaining activity at 0.1 µM in assay [1] worked out at 5.18%; in [2] it was 86.6%; in [3], 91.4%; in [4], 73.8%; in assay [5] (CDK2/cyclin A1), 30.7%; in [5] (CDK2/cyclin A), 44.2%. Also, the remaining activity at 0.1 µM in assay [5] (CDK2/cyclin E) was found to be 48.9%; in assay [5] (CDK2/cyclin O), 19.2%; in [6] it was 95.1%; in [7] it was 18.6%; in assay [8] it was 4.24%; in [9], 65.2%. Moreover, the remaining activity at 0.1 µM in [10] (CDK5/p25) was determined as 52%; in assay [10] (CDK5/p35), 46.3%; in assay [11], 16.1%; in assay [12], 4.39%; in assay [13], 101%; in [14] it was 9.83%. Besides, the remaining activity at 0.1 µM in assay [15] amounted to 69.9%.
